Measured values from paper PMC8523698, “Preclinical characterization of an intravenous coronavirus 3CL protease inhibitor for the potential treatment of COVID19” (Nature Communications, 2021).
pIC50: −log10 of the molar value. Like-named read-outs stand apart in the source and are kept apart here.

Columns and labels:
OCT2 = molecular target: T1, OCT2 (Homo sapiens, UniProt O15244); assay: Transporter inhibition using transfected HEK293 cells
T1 sequence (O15244 1-555): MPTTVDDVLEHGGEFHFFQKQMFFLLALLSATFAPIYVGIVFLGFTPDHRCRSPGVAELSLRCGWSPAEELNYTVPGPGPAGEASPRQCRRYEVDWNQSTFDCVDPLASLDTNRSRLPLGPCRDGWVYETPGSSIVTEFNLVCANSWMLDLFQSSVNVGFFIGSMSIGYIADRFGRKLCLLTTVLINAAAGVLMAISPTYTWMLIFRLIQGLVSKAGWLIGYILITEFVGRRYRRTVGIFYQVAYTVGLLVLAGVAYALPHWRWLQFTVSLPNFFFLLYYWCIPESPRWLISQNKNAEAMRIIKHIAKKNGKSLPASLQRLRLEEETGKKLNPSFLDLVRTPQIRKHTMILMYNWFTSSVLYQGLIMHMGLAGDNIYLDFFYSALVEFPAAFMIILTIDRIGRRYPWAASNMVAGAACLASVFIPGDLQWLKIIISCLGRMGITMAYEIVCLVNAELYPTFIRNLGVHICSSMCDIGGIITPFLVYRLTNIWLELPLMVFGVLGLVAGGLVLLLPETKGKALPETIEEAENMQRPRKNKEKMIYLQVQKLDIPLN

[1] = Secondary/off-target pharmacology panel (Eurofins Cerep); conditions: assessed at 100 µM
[2] = tested on: SARS-CoV-2 Washington strain 1 (USA_WA1/2020); format: cell-based
OCT1 = molecular target: T2, OCT1 (Homo sapiens, UniProt O15245); assay: Transporter inhibition using transfected HEK293 cells; format: in vitro ADME; conditions: IC50, [14C]Metformin (10 µM)
T2 construct: expressed in transfected cells; host or cells: HEK293
T2 sequence (O15245 1-554): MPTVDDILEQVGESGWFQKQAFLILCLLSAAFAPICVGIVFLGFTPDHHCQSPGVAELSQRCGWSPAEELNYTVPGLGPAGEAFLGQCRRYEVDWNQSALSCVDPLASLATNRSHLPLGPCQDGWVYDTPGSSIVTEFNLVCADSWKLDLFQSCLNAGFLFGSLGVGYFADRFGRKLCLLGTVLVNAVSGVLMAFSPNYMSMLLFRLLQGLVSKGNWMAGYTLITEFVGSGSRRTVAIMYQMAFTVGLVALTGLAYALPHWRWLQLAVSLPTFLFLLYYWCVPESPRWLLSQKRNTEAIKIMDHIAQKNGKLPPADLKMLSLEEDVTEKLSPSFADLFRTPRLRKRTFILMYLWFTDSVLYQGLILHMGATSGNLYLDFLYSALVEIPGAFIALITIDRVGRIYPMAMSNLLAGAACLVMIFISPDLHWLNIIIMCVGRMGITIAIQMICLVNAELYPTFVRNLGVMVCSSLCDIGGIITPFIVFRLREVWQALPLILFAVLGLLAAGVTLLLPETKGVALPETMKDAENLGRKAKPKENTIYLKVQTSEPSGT

BCRP = BCRP (Homo sapiens, UniProt Q9UNQ0); assay: Transporter inhibition using membrane vesicles; conditions: IC50, Rosuvastatin (0.2 µM)
CYP3A4/5 = assay: in vitro; conditions: human, microsomes, pH 7.4, Percent of Control Activity
[3] = Human blood hemocompatibility (hemolysis, flocculation)
[4] = tested on: SARS-CoV-2 Belgium/GHB-03021/2020 strain; assay: microbe, parasite or virus in culture; format: cell-based; conditions: Severe acute respiratory syndrome coronavirus 2
MATE2K = molecular target: T3, MATE2K (Homo sapiens, UniProt Q86VL8); assay: Transporter inhibition using transfected HEK293 cells; format: in vitro ADME; conditions: IC50, [14C]Metformin (20 µM)
T3 construct: expressed in transfected cells; host or cells: HEK293
Method: For the inhibition studies, HEK293 cells were washed three times with warm transport buffer (Hanks’ balanced salt solution with 20 mM 4-(2-Hydroxyethyl) piperazine-1-ethanesulfonic acid, pH 7.4) followed by incubation with test compounds containing probe substrates: 10 or 20 µM [^14C]-metformin (OCT1, OCT2, MATE1, MATE2K), 0.5 µM [^3H] para-aminohippuric acid (OAT1), 0.1 µM [^3H] estrone-3-sulfate (OAT3) or 0.5 µM rosuvastatin (OATP1B1/1B3). Uptake was terminated by washing cells at least three times with ice-cold transport buffer and then lysing with 0.2 mL of scintillation fluid or 0.225 mL of methanol containing internal standard. For radiolabeled compounds, radioactivity in each sample was quantified by measurement on MicroBeta (Perkin Elmer). For rosuvastatin, cell extracts were dried down under nitrogen and reconstituted in 50:50 (v:v) methanol:water prior to injection onto a LC-MS/MS system. The total cellular protein content was determined by using a BCA Protein Assay Kit (Pierce Biotechnology) following the manufacturer’s protocol. Uptake ratio was then derived as a ratio of accumulation in transfected cells to accumulation in wild-type cells. The half-maximal inhibitory concentration (IC50) for each transporter was calculated in GraphPad Prism.

[5] = CYP 3A4/5 (mdz), 30-Minute Preincubation
[6] = CYP 3A4/5 (mdz), Zero-Minute Preincubation
[7] = CYP 3A4/5 (tst), 30-Minute Preincubation
[8] = CYP 3A4/5 (tst), Zero-Minute Preincubation

T3 sequence (Q86VL8 1-566 isoform Q86VL8-3): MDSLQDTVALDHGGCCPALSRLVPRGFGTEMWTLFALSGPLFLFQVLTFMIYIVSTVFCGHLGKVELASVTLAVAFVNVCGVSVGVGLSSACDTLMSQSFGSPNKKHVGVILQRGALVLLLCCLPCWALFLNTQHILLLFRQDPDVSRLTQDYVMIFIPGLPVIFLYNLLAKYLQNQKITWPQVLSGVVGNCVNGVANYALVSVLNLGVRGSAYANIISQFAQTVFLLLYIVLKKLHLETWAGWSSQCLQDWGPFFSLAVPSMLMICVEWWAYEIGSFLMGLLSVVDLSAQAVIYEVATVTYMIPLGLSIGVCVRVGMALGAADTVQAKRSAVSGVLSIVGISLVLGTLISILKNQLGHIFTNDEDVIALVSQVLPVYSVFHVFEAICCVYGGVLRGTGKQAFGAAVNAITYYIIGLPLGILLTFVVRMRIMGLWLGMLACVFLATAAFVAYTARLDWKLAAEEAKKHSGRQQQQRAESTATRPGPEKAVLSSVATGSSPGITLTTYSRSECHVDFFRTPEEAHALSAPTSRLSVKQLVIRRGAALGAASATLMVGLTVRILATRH
Sequence of BCRP (Q9UNQ0 whole entry): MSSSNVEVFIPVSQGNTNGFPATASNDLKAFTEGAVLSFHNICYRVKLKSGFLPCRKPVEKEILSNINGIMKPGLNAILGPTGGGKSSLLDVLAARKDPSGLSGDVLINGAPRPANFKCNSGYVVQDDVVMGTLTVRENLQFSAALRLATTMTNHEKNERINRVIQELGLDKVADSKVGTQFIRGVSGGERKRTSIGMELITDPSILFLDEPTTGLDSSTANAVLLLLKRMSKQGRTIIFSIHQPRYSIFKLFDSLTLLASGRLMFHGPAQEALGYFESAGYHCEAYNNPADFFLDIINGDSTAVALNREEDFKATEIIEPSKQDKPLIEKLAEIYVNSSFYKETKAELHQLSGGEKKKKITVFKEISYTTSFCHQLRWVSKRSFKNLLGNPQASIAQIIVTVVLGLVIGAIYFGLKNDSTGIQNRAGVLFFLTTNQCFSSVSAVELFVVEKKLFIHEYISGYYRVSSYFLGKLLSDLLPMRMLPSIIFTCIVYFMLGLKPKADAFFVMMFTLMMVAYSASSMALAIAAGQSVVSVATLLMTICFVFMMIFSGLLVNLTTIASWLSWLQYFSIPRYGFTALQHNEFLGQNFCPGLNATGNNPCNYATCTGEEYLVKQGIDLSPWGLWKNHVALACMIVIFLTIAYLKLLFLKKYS

With `COc1cccc2[nH]c(C(=O)N[C@@H](CC(C)C)C(=O)N[C@@H](C[C@@H]3CCNC3=O)C(=O)CO)cc12` [PF-00835231] the pIC50 (OCT2) was < 3.52, the pIC50 (OCT2; human, HEK293 cells stably transfected with OCT2, pH 7.4, probe [14C]-metformin (20 µM)) was < 4.70 and the “secondary (off-target) pharmacology” value [1] was “minimal potential for secondary (off-target) pharmacology”. The “hill coefficient (m)” value [2] was 3, the pIC50 (OCT1) was 4.44 and the pIC50 (OCT1; human, HEK293 cells stably transfected with OCT1, pH 7.4, probe [14C]-metformin (10 µM)) was < 4.70. For the same compound, the CC50 (in vitro; African green monkey, CC50) was > 100 µM, the CC50 (in vitro; monkey, CC50 GeoMean (95% CI)) was > 100 µM and the pIC50 (BCRP) was 4.71. The activity at 0.1 µM (CYP3A4/5; CYP 3A4/5 (mdz), 0.1 µM, 30-Minute Preincubation) was 97.8%, the activity at 0.1 µM (CYP3A4/5; CYP 3A4/5 (mdz), 0.1 µM, Zero-Minute Preincubation) was 95.2% and the activity at 0.214 µM (CYP3A4/5; CYP 3A4/5 (mdz), 0.214 µM, 30-Minute Preincubation) was 121%. It also gave an activity at 0.214 µM (CYP3A4/5; CYP 3A4/5 (mdz), 0.214 µM, Zero-Minute Preincubation) of 98.7%, an activity at 0.979 µM (CYP3A4/5; CYP 3A4/5 (mdz), 0.979 µM, 30-Minute Preincubation) of 99.8% and an activity at 0.979 µM (CYP3A4/5; CYP 3A4/5 (mdz), 0.979 µM, Zero-Minute Preincubation) of 95.5%. The activity at 2.09 µM (CYP3A4/5; CYP 3A4/5 (mdz), 2.09 µM, 30-Minute Preincubation) was 99.7%, the activity at 2.09 µM (CYP3A4/5; CYP 3A4/5 (mdz), 2.09 µM, Zero-Minute Preincubation) was 97.6% and the activity at 4.48 µM (CYP3A4/5; [5]) was 101%. For the same compound, the activity at 4.48 µM (CYP3A4/5; [6]) was 110%, the activity at 20.5 µM (CYP3A4/5; [5]) was 88.2% and the activity at 20.5 µM (CYP3A4/5; [6]) was 108%. The activity at 43.8 µM (CYP3A4/5; [5]) was 77.3%, the activity at 43.8 µM (CYP3A4/5; [6]) was 101% and the activity at 93.5 µM (CYP3A4/5; [5]) was 64.9%. For the same compound, the activity at 93.5 µM (CYP3A4/5; [6]) was 107%, the activity at 200 µM (CYP3A4/5; [6]) was 104% and the activity at 30 min, 0.1 µM (CYP3A4/5; CYP 3A4/5 (tst), 0.1 µM, 30-Minute Preincubation) was 87.1%. It also gave an activity at 0.1 µM (CYP3A4/5; CYP 3A4/5 (tst), 0.1 µM, Zero-Minute Preincubation) of 103%, an activity at 0 min, 0.214 µM (CYP3A4/5; CYP 3A4/5 (tst), 0.214 µM, Zero-Minute Preincubation) of 102% and an activity at 30 min, 0.979 µM (CYP3A4/5; CYP 3A4/5 (tst), 0.979 µM, 30-Minute Preincubation) of 97.6%. For the same compound, the activity at 0 min, 2.09 µM (CYP3A4/5; CYP 3A4/5 (tst), 2.09 µM, Zero-Minute Preincubation) was 98.1%, the activity at 4.48 µM (CYP3A4/5; [7]) was 101% and the activity at 20.5 µM (CYP3A4/5; [7]) was 83.2%. The activity at 20.5 µM (CYP3A4/5; [8]) was 75.8%, the activity at 43.8 µM (CYP3A4/5; [7]) was 55.5% and the activity at 43.8 µM (CYP3A4/5; [8]) was 79.9%. The activity at 93.5 µM (CYP3A4/5; [8]) was 74.9%, the activity at 200 µM (CYP3A4/5; [7]) was 24.3% and the “hemolysis or flocculation/turbidity parameters” value [3] was “no effect on hemolysis or flocculation/turbidity parameters”. The EC90 [4] was 1.6 µM, the pIC50 (MATE2K) was 3.75 and the pIC50 (MATE2K; human, HEK293 cells stably transfected with MATE2K, pH 7.4, probe [14C]-metformin (20 µM)) was < 4.70.
